Reference: patent US20100021918A1, “METHOD FOR ASSAYING ACTION OF ANTITUMOR AGENT USING SPLICING DEFECTS AS INDEX” (Eisai R&D Management Co., Ltd., priority 2007, published 2010)

Test system: human colon carcinoma cell strain WiDr
Test: Microarray analysis (2), reviewed conditions, intron expression, Table 3
Type: cell-based
Settings: treated vs control; for Fold Change (change in expression level of intron probe set): WiDr cells
Experimental: WiDr cells were first suspended in RPMI1640 medium (containing 10% FBS, penicillin, and streptomycin) and seeded in a 10 cm dish (2×10^6 cells/dish). After an overnight culture in an incubator with 5% carbon dioxide gas at 37° C., the medium was changed with medium containing 14 nM of (8E,12E,14E)-7-((4-cycloheptylpiperazin-1-yl)carbonyl)oxy-3,6,16,21-tetrahydroxy-6,10,12,16,20-pentamethyl-18,19-epoxytricosa-8,12,14-trien-11-olide or containing vehicle alone. After cultured for additional six hours, TRI reagent (SIGMA) were added to the cells and the cells were harvested. RNA was purified in accordance with the protocol of TRI reagent, followed by further purification with RNeasy (QIAGEN). Absorbance at 260 nm was measured to quantify an amount of RNA. This experiment was repeated three times and RNA samples (n=3) were prepared.
Ribosomal RNA was removed from 1 μg of each total RNA of control cells (n=3) and cells with the treatment (n=3) by using RiboMinus Human/Mouse Transcriptome Isolation Kit (Invitrogen). Single stranded cDNA synthesis, double stranded cDNA synthesis, cRNA synthesis, second single stranded cDNA synthesis, cDNA fragmentation, and cDNA labeling in order were carried out for the total RNA from which ribosomal RNA was removed, by using GeneChip Whole Transcript Sense Target Labeling and Control Reagents (Affymetrix) to make a cDNA probe. The cDNA probe was used for hybridization with Human Exon 1.0 ST Array (Affymetrix). The array was washed and stained, and luminescence intensity was measured by a scanner.
Analysis conditions were reviewed in the data used in Example 3. Genes containing increased introns upon treatment with (8E,12E,14E)-7-((4-cycloheptylpiperazin-1-yl)carbonyl)oxy-3,6,16,21-tetrahydroxy-6,10,12,16,20-pentamethyl-18,19-epoxytricosa-8,12,14-trien-11-olide were identified.
In order to consider the analysis conditions, variations in the data from the samples with identical conditions were studied. […] It turned out that, by analyzing under conditions where the expression level was more than 100 and change in the expression level was more than five times, a probe set with increased expression can be extracted.
Probe sets showing that the normalized change in the level expression of the probe set in the group with the treatment was more than 5 times; the expression level of the probe set and the gene in the group with the treatment were more than 100; and probe set annotation was “extended, full, free”, were picked out. Welch's t-test was conducted with the probe sets extracted for the treated group and the control group to determine a p and q value. A gene containing the probe sets with the q value of less than 5% was determined as a candidate gene with increased expression level of the intron regions (Table 3).
In Table 3, for each gene evaluated, gene name (Gene Name), abbreviated name (Gene Symbol), accession number (Accession), alias name (Synonym), transcription cluster number in Human Exon 1.0 ST Array (Human Exon 1.0 ST Array Transcript Cluster ID), chromosome number (Chromosome), type of strand (Strand), start region (Start), stop region (Stop), and change in expression level (Fold Change) were respectively shown.

CCC(O)C(C)C1OC1CC(C)(O)/C=C/C=C(\C)C1OC(=O)CC(O)CCC(C)(O)C(OC(=O)N2CCN(C3CCCCCC3)CC2)/C=C/C1C (stereo not drawn) [E7107, (8E,12E,14E)-7-((4-cycloheptylpiperazin-1-yl)carbonyl)oxy-3,6,16,21-tetrahydroxy-6,10,12,16,20-pentamethyl-18,19-epoxytricosa-8,12,14-trien-11-olide]
Fold Change (gene AMD1, intron expression): 7.90 | Fold Change (gene ANLN, intron expression): 7.90 | Fold Change (gene ANTXR2, intron expression): 7.51 | Fold Change (gene API5, intron expression): 7.77 | Fold Change (gene ATAD2, intron expression): 7.69 | Fold Change (gene ATN1, change in expression level): 14.70 | Fold Change (gene AZIN1, intron expression): 7.51 | Fold Change (gene BAT1 // ATP6V1G2, intron expression): 7.87 | Fold Change (change in expression level of intron probe set) (gene BAZ1B, transcript cluster 3056044): 5.01 | Fold Change (gene BCL7B, intron expression): 7.82 | Fold Change (gene BIRC6, change in expression level): 15.96 | Fold Change (gene BNIP2, change in expression level): 15.96 | Fold Change (change in expression level of intron probe set) (gene BTF3L4, transcript cluster 2336271): 5.01 | Fold Change (gene C1orf160, intron expression): 7.69 | Fold Change (gene C4orf30, intron expression): 7.53 | Fold Change (gene C10orf119, intron expression): 7.55 | Fold Change (gene C11orf57, intron expression): 7.54 | Fold Change (gene C12orf44, intron expression): 7.51 | Fold Change (gene C15orf42, change in expression level): 26.27 | Fold Change (change in expression level of intron probe set) (gene CDCA5, transcript cluster 3377423): 5.02 | Fold Change (gene CENTD1, intron expression): 7.60 | Fold Change (gene CERK, intron expression): 7.52 | Fold Change (gene CGI-09, change in expression level): 16.01 | Fold Change (gene CHCHD3, intron expression): 7.75 | Fold Change (gene CLK3, intron expression): 7.91 | Fold Change (gene CRSP6, intron expression): 7.49 | Fold Change (gene CSNK2A1 // CSNK2A1P, intron expression): 7.87 | Fold Change (gene DDX17, change in expression level): 15.42 | Fold Change (gene DDX18 // WNT8B, intron expression): 7.70 | Fold Change (gene DDX23, change in expression level): 15.78 | Fold Change (gene DEDD, intron expression): 7.89 | Fold Change (gene DPH1 // OVCA2, intron expression): 7.64 | Fold Change (gene EEF1A1, intron expression): 7.70 | Fold Change (gene EEF1B2, intron expression): 7.78 | Fold Change (gene EGFR, intron expression): 7.77 | Fold Change (change in expression level of intron probe set) (gene EIF3S1, transcript cluster 3591963): 5.02 | Fold Change (gene EIF4G2, intron expression): 7.60 | Fold Change (gene FBXL11, intron expression): 7.57 | Fold Change (change in expression level of intron probe set) (gene FBXO28, transcript cluster 2382336): 5.02 | Fold Change (gene FDFT1, intron expression): 7.90 | Fold Change (gene FEN1, change in expression level): 14.75 | Fold Change (gene FOXM1, intron expression): 7.52 | Fold Change (gene GDI1, intron expression): 7.73 | Fold Change (gene GTF2H1, intron expression): 7.62 | Fold Change (gene GTF3C2, intron expression): 7.63 | Fold Change (gene GTPBP4, intron expression): 7.79 | Fold Change (gene HIRA, intron expression): 7.82 | Fold Change (gene HSP90AA1 // HSP90AA2 // HSP90AA6P, intron expression): 7.53 | Fold Change (change in expression level of intron probe set) (gene IDH3B, transcript cluster 3895075): 5.01 | Fold Change (gene ILF3, intron expression): 7.68 | Fold Change (gene IRS2, intron expression): 7.68 | Fold Change (gene ITGB4BP, intron expression): 7.55 | Fold Change (gene ITGB6, intron expression): 7.88 | Fold Change (gene JOSD3 // SNORA25 // SNORA32 // SNORA18, intron expression): 7.81 | Fold Change (gene KCTD10, intron expression): 7.48 | Fold Change (gene KIAA0174, change in expression level): 14.78 | Fold Change (gene KIAA1967, intron expression): 7.49 | Fold Change (gene KITLG, intron expression): 7.58 | Fold Change (gene KLHL18, change in expression level): 15.00 | Fold Change (gene MAP2K3, intron expression): 7.70 | Fold Change (gene MAP3K11, intron expression): 7.77 | Fold Change (gene MKL1, intron expression): 7.93 | Fold Change (change in expression level of intron probe set) (gene MLL5, transcript cluster 3017547): 5.02 | Fold Change (gene MRPL17, intron expression): 7.62 | Fold Change (gene MTF2, intron expression): 7.63 | Fold Change (gene MYST2, intron expression): 7.60 | Fold Change (gene NDUFA5, intron expression): 7.48 | Fold Change (gene NONO, intron expression): 7.64 | Fold Change (gene NOP5/NOP58, intron expression): 7.73 | Fold Change (gene PAK1IP1 // C20orf7, change in expression level): 15.04 | Fold Change (gene PELI1, change in expression level): 27.36 | Fold Change (gene PEX5, intron expression): 7.53 | Fold Change (gene PHF12, intron expression): 7.73 | Fold Change (change in expression level of intron probe set) (gene PIK4CB // RFX5, transcript cluster 2434925): 5.03 | Fold Change (change in expression level of intron probe set) (gene POLR3O, transcript cluster 2432647): 5.01 | Fold Change (gene POMZP3, intron expression): 7.56 | Fold Change (gene PPP6C, intron expression): 7.91 | Fold Change (gene PPRC1, intron expression): 7.86 | Fold Change (gene PRPF40A, intron expression): 7.89 | Fold Change (gene RBM5, intron expression): 7.69 | Fold Change (gene RPS6KB1, intron expression): 7.73 | Fold Change (gene SAFB2, intron expression): 7.64 | Fold Change (gene SAPS3, change in expression level): 15.25 | Fold Change (gene SDCCAG3 // SNAPC4, intron expression): 7.49 | Fold Change (change in expression level of intron probe set) (gene SHB // CKAP2 // MCART1, transcript cluster 3205659): 5.00 | Fold Change (gene SIN3A, intron expression): 7.60 | Fold Change (gene SMAD5, intron expression): 7.77 | Fold Change (gene SNIP1, intron expression): 7.72 | Fold Change (gene SNRP70, intron expression): 7.52 | Fold Change (gene SPOP, intron expression): 7.71 | Fold Change (gene SPRED2, change in expression level): 15.03 | Fold Change (change in expression level of intron probe set) (gene SPTLC2, transcript cluster 3573152): 5.02 | Fold Change (gene STARD7, intron expression): 7.65 | Fold Change (gene STIP1, intron expression): 7.71 | Fold Change (gene SUPV3L1, change in expression level): 14.99 | Fold Change (gene TBC1D10B, intron expression): 7.74 | Fold Change (gene TCP1, intron expression): 7.92 | Fold Change (gene THRAP1, intron expression): 7.84 | Fold Change (gene TMEM2, intron expression): 7.52 | Fold Change (gene TOP1, intron expression): 7.93 | Fold Change (gene TXNDC9 // LYG2, intron expression): 7.69 | Fold Change (gene UBE2J1, intron expression): 7.66 | Fold Change (gene USP36, intron expression): 7.92 | Fold Change (gene VAPA, intron expression): 7.56 | Fold Change (gene WAC, intron expression): 7.92 | Fold Change (gene WDR3, intron expression): 7.63 | Fold Change (gene YIPF3 // C6orf154, intron expression): 7.61 | Fold Change (gene YME1L1, intron expression): 7.84 | Fold Change (gene YTHDF1, intron expression): 7.83 | Fold Change (gene ZNF148, intron expression): 7.69 | Fold Change (gene ZNF473, intron expression): 7.87
